In patent publication US8962621B2 (Shanghai Institute of Pharmaceutical Industry, priority 2010, dated 2015):
Like-named read-outs stand apart in the source and are kept apart here.

Tests used:
NA Transporter (hNAT) = NA Transporter (hNAT) (Homo sapiens, UniProt P23975); test: Inhibition of [3H]-NA reuptake in HEK 293 cells stably expressing hNAT; conditions: for inhibition at 10 µM: HEK293, read-out: NA Reuptake Inhibition; for NA Reuptake Inhibition: 10 μmol/L final concentration (b487 prints 0.1 mmol/L), HEK 293 hNAT cells, [3H]-NA
Sequence of NA Transporter (hNAT) (P23975 whole entry): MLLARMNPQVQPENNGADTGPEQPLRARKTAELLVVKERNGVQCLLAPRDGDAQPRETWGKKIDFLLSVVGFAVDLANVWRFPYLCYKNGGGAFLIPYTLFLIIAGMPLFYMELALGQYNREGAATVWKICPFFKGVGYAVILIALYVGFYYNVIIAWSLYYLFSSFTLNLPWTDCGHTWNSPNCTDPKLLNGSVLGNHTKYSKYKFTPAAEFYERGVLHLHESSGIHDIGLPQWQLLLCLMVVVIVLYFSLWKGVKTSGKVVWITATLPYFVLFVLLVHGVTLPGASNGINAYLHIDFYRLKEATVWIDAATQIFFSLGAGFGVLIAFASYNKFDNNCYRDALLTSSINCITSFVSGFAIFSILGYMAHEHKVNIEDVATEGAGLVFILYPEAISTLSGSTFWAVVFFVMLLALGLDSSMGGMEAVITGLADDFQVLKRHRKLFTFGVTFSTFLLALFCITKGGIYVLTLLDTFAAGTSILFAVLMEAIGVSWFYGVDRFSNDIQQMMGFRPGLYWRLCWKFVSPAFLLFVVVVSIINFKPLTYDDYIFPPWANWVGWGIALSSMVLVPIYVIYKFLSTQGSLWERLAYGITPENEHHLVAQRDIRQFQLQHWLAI

male Kunming mice = test: Mice forced swimming test; format: in vivo; conditions: for effect in the forced swimming test (in words): 20 mg/kg; for IT (sec), immobility time: 20.0 mg/kg single intragastric administration, 1 h before test, last 4 min of 6 min, n=12
Experimental: Through intragastric administration, 10 mL·kg^−1 of each sample (physiological saline for the blank control group) is administrated. The mice are pre-screened for swimming one day before the actual test. The mouse is placed into water (25° C., 10 cm deep) in a glass tank (height 20 cm, diameter 14 cm) and forced to swim for 6 min. Those who stop swimming at around 70-160 s are chosen for the actual test which starts 24 h later. After 1 h of the administration, the forced swimming test is performed by placing the animal into the above-mentioned environment to swim for 6 min. The accumulative immobility time for the last 4 min is recorded. Data is statistically analyzed with t-test.

male ICR mice = test: Mice tail suspension test; format: in vivo; conditions: for IT (sec), immobility time: 20.0 mg/kg single intragastric administration, 1 h before test, 4 min observation, n=12; for Improvement (%): 20.0 mg/kg single oral administration, versus blank control IT; for effect on immobility time in the tail suspension test (in words): efficacy similar to Venlafaxine
Experimental: Through intragastric administration, 10 mL·kg^−1 of each sample (physiological saline for the blank control group) is administrated. After 1 h of the treatment, the mouse is held with a medical tape at a position around 2 cm from the tip of its tail and hung upside-down in the suspension cage with its head 5 cm away from the bottom of the cage. The observation starts right after the mouse is suspended for 2 min and continues for 4 min. The time during which the mouse is immobile (no struggling or only tiny movements of its body/limbs) in this 4 min is accumulated (IT, immobility time). The percentage of the improvement is calculated according to the equation: Improvement %=[IT (blank control group)−IT (compound treatment group)]/IT (blank control group)×100%

[1] = Acute toxicity experiment (single oral gavage); conditions: mouse, in vivo
[2] = tested on: Histidine auxotroph mutant of mouse salmonella TA97, TA98, TA100 and TA102; format: cell-based; conditions: for bacteriostatic action: 5000 μg per dish, TA98 without S9 and TA97 with S9, none at other dosages; for Ames test result: TA97, TA98, TA100, TA102, with or without S9, all test dosages
Description: 5. […] 6. Bacterial Reverse Mutation Test of Compounds VI-1 VI-2 and VI16 • Strains: Histidine auxotroph mutant of mouse salmonella TA97, TA98, TA100 and TA102. • Test method: The one reported in Maron DM et al: (1983) Mutay Res. 113, 173-216 is used. • Results: The test consists of two parts, i.e., −S9 and +S9. […] No bacteriostatic actions to all the strains are observed at all the other dosages, and the growth background is good.

5-HT Transporter (hSERT) = 5-HT Transporter (hSERT) (Homo sapiens, UniProt P31645); test: Inhibition of [3H]-5-HT reuptake in HEK 293 cells stably expressing hSERT; conditions: for inhibition at 10 µM: HEK293, read-out: 5-HT Reuptake Inhibition; for 5-HT Reuptake Inhibition: 10 μmol/L final concentration (b487 prints 0.1 mmol/L), HEK 293 hSERT cells, [3H]-5-HT;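 on all read-outs here: compound preincubated 10 min at 30 °C, then 10 min uptake, filter-bound radioactivity counted by scintillation, inhibition relative to total (blank) minus non-specific (positive control) uptake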
Sequence of 5-HT Transporter (hSERT) (P31645 whole entry): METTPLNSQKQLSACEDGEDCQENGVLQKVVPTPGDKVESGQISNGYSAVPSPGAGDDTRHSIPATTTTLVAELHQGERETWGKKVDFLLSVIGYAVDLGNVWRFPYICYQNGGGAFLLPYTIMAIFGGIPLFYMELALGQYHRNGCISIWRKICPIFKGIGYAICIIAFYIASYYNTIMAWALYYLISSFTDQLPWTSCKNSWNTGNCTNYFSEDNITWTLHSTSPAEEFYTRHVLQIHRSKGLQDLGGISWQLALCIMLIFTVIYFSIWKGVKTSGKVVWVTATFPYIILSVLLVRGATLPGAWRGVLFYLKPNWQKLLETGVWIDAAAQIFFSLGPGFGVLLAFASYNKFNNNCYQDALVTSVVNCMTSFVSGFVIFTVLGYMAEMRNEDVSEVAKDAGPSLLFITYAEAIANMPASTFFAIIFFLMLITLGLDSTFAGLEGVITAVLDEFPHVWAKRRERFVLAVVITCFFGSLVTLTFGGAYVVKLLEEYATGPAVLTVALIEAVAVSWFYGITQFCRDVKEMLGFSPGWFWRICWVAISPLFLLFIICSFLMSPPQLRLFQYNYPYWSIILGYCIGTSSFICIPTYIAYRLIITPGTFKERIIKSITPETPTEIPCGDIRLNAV

DA Transporter (hDAT) = DA Transporter (hDAT) (Homo sapiens, UniProt Q01959); test: Inhibition of [3H]-DA reuptake in HEK 293 cells stably expressing hDAT; conditions: for inhibition at 10 µM: HEK293, read-out: DA Reuptake Inhibition; for DA Reuptake Inhibition: 10 μmol/L final concentration (b487 prints 0.1 mmol/L), HEK 293 hDAT cells, [3H]-DA
Sequence of DA Transporter (hDAT) (Q01959 whole entry): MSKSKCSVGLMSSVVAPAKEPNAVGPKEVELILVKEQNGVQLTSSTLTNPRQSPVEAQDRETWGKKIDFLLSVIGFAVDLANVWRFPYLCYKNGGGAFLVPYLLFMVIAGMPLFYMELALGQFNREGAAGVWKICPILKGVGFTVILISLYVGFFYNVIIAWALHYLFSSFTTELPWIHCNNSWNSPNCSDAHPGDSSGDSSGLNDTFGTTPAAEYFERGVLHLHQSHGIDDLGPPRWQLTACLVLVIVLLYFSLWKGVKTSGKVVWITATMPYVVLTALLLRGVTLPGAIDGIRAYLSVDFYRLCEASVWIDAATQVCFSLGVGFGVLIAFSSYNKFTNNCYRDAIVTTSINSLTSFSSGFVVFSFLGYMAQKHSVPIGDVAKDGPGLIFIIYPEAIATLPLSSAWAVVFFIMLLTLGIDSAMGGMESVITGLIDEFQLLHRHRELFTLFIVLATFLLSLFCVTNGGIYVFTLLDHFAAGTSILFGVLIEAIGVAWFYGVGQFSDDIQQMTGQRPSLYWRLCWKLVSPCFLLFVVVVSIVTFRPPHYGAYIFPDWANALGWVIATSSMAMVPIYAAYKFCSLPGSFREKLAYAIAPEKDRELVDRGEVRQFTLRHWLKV

rats = test: Learned helplessness experiment (conditioned avoidance test); format: in vivo
Description: (1) Principles • This is an animal model of depression. In this experiment, an animal is placed under conditions with aversive stimulus which it can't escape. […] This is a well recognized depression state, in which the level of catecholamine in the animal's brain is reduced. An antidepressant can act against this state. The learned helplessness model is sensitive to a variety of antidepressants used in a sub-long period (3-7 d), including tricyclic antidepressants, monoamine oxidase inhibitors, monoamine reuptake inhibitors and atypical antidepressants.
(2) Test Method • The animals are grouped. The pre-shock animals are generated the first day by performing inescapable electric shock. The pre-shock animals are given foot electric shock (0.8 mA, 15 s) for 60 times (1 min interval). Rats in the control group are only put into the cage for a same period of time but without any electric shock. • The administration of drugs starts the next day and lasts for one week. […] The conditioned avoidance test is conducted 24 h after the last administration to determine the number of times of successful avoidance and the incubation period of escape.

[3] = 30 mg/kg, one week, test 24 h after last administration, n = 10
[4] = Venlafaxine 30 mg/kg, VI-2 at 3 doses (20, 10, 5 mg/kg)

Structure (SMILES) | inhibition at 10 µM (NA Transporter (hNAT)) [%] | effect in the forced swimming test (in words) (male Kunming mice) | IT (sec), immobility time (male Kunming mice) [s] | IT (sec), immobility time (male ICR mice) [s] | Improvement (%) (male ICR mice) | effect on immobility time in the tail suspension test (in words) (male ICR mice; 20 mg/kg) | inhibition effect towards the reuptake of 5-HT (in words) (5-HT Transporter (hSERT)) | inhibition at 10 µM (5-HT Transporter (hSERT)) [%] | inhibition at 10 µM (DA Transporter (hDAT)) [%] | NA Reuptake Inhibition (NA Transporter (hNAT)) [%] | 5-HT Reuptake Inhibition (5-HT Transporter (hSERT)) [%] | DA Reuptake Inhibition (DA Transporter (hDAT)) [%] | other results
CN(C)CCC(c1csc2ccccc12)N1CCCCC1 (centres unmarked) | 92.1 | significant reduction in the immobility time | 62.1 ± 42.9 | 45.21 ± 28.19 | 54.42 | significant reduction in the immobility time | relatively strong inhibition effect | 90.5 | 80.2 | – | – | – | LD50 ([1]; mice, single oral gavage, Bliss method, read-out: LD50): 870 mg/kg; bacteriostatic action [2]: bacteriostatic action is showed; Ames test result [2]: negative
CCN(CC)CCC(c1ccc(Cl)c(Cl)c1)N1CCCC1 (centres unmarked) [VI-1, N,N-diethyl-3-(3,4-dichlorophenyl)-3-(pyrrolidin-1-yl)-propylamine] | 101 | significant reduction in the immobility time | 57.1 ± 37.8 | 48.17 ± 38.29 | 51.44 | significant reduction in the immobility time | relatively strong inhibition effect | 98.2 | 101 | – | – | – | LD50 ([1]; po): 1050 mg/kg; bacteriostatic action [2]: bacteriostatic action is showed; Ames test result [2]: negative
CN(C)CCC(c1cc2ccccc2s1)N1CCCC1 (centres unmarked) [VI-19, N,N-dimethyl-3-(benzothiophen-2-yl)-3-(pyrrolidin-1-yl)-propylamine] | 91.2 | significant reduction in the immobility time | 60.7 ± 26.7 | 50.28 ± 21.30 | 49.31 | significant reduction in the immobility time | – | 95.3 | 75.6 | – | – | – | –
CN(C)CCC(c1cc2ccccc2s1)N1CCCCC1 (centres unmarked) [VI-22, N,N-dimethyl-3-(benzothiophen-2-yl)-3-piperidinyl-propylamine] | – | significant reduction in the immobility time | 75.4 ± 40.3 | 65.25 ± 28.39 | 34.22 | – | relatively strong inhibition effect | – | – | 99.8 | 96.3 | 96.5 | –
CN(C)CCC(c1c[nH]c2ccccc12)N1CCOCC1 (centres unmarked) [VI-31, N,N-dimethyl-3-(indol-3-yl)-3-morpholinyl-propylamine] | – | significant difference from that of the blank control | 99.7 ± 43.7 | 78.36 ± 23.00 | 20.84 | – | relatively strong inhibition effect | – | – | 88.1 | 87.9 | 75.6 | –
COc1ccc2cc(C(CCN(C)C)N3CCCC3)ccc2c1Cl (centres unmarked) [VI-36, N,N-dimethyl-3-(5-chloro-6-methoxynaphthalen-2-yl)-3-(pyrrolidin-1-yl)-propylamine] | 97.8 | significant difference from that of the blank control | 90.6 ± 48.0 | 39.91 ± 18.35 | 59.29 | significant reduction in the immobility time | – | 98.3 | 87.2 | – | – | – | –
CN(C)CCCC(c1csc2ccccc12)N1CCOCC1 (centres unmarked) [VI-46, N,N-dimethyl-4-(benzothiophen-3-yl)-4-morpholinyl-butylamine] | – | significant difference from that of the blank control | 97 ± 48.5 | 86.19 ± 35.87 | 13.01 | – | relatively strong inhibition effect | – | – | 89.5 | 92.3 | 78.0 | –
COc1ccc(C(CN(C)C)C2(O)CCCCC2)cc1 (centres unmarked) [Venlafaxine, reference compound] | 96.4 | – | 77.4 ± 47.2 | 36.97 ± 21.10 | 62.73 | – | – | – | 52.4 | – | – | – | immobility time (male ICR mice; 20 mg/kg): 36.97 ± 21.10 s; Incubation period of escape (rats; [3]): 72.8 ± 77.26 s; Number of times of successful avoidance (rats; [3]): 19.4 ± 6.88; incubation period of escape (in words) (rats; [4]): significantly shortened incubation period of escape; times of successful avoidance (in words) (rats; [4]): relatively more times of successful avoidance
